From patent US20230257374A1, “NOVEL KRAS G12C PROTEIN INHIBITOR, PREPARATION METHOD THEREFOR, AND USE THEREOF” (INNOVENT BIOLOGICS (SUZHOU) CO., LTD., priority 2019, published 2023)

Assays:
in vitro [1] = details: human, Caco-2, pH 7.4
Method: Drug penetration test: the Transwell culture plate was retrieved from the incubator. […] All samples were prepared in double parallel. The integrity of the cell monolayer membrane after 2 hours of incubation was assessed using leakage of fluorescein; fluorescein stock solution was diluted with HBSS (25 mM HEPES, pH 7.4) to a final concentration of 100 μM. 100 μL of fluorescein solution was added to each well of the upper Transwell plate and 300 μL of HBSS (25 mM HEPES, pH 7.4) was added to each well of the lower receiving plate; after incubation at 37° C. for 30 min, 80 μL of the solution was pipetted from the upper and lower layers of each well to a new 96-well plate.
The apparent permeability coefficients (Papp, unit: cm/s) of the compounds in Caco-2 cells were calculated from the specific concentrations at the acceptor and donor ends, and the specific calculation formula is as follows: […]
where VA represents the volume of the acceptor end solution (0.3 mL for Ap→Bl, 0.1 mL for Bl→Ap); Area represents the area of the Transwell-96 well plate (0.143 cm^2); time represents the incubation time (unit: s); [drug]acceptor represents the drug concentration (ratio of peak area to internal standard area) at the acceptor end; [drug]initial, donor represents the drug concentration at the donor end (ratio of peak area to internal standard area).
The efflux ratio was calculated as follows: […]
where Papp (B-A) represents the apparent permeability coefficient from base end to top end; Papp (A-B) represents the apparent permeability coefficient from top end to base end.

in vitro [2] = details: microsomes, pH 7.4
Method: To examine the in vitro metabolic stability of the test compounds in liver microsomes of different species, representative compounds were selected, and their stability was evaluated by measuring the concentration of the test compounds in the incubation system using LC/MS/MS and calculating their intrinsic clearance in the microsome system.
The method is specifically as follows: each compound was first dissolved in DMSO to prepare a 200 μM working solution and added to the system solution at the time of testing to form a solution with a final concentration of 1 μM.
The microsomes were stored in a −80° C. freezer.
Preparation of incubation system: an incubation system was prepared as described in the table below.
25 μL, of NADPH or phosphate buffered saline was transferred to the incubation system described above, and 2 μL, of 200 μM of the test compound or verapamil was added. The sample with NADPH added was prepared in duplicate; the NADPH negative sample was prepared in single parallel. 30 μL, of suspension was taken at 0.5, 5, 15, 30 and 60 minutes. The reaction system was terminated by adding 180 μL, of acetonitrile containing an internal standard and vortexed for 10 min. […] 100 μL, of the supernatant was transferred to a feeding plate, and 100 μL, of purified water was added. The mixture was well mixed for UPLC-MS/MS analysis.
The results based on the data were obtained by calculation according to the peak area ratio, and the peak area was detected through an extracted ion chromatogram.
The slope value (k) was determined by linear fitting of the natural logarithm of drug elimination percentage over time.

Papp A→B at 2 h, 10 μM (in vitro [1]) [×10⁻⁶ cm/s] | Papp B→A at 2 h, 10 μM (in vitro [1]) [×10⁻⁶ cm/s] | half-life at 1 μM (in vitro [2]; ICR (CD-1), mouse) [min] | microsomal CLint at 1 μM (in vitro [2]; ICR (CD-1), mouse) [µL/min/mg] | half-life at 1 μM (in vitro [2]; human) [min] | microsomal CLint at 1 μM (in vitro [2]; human) [µL/min/mg] | efflux ratio at 2 h, 10 μM (in vitro [1]) | SMILES
– | – | 10 | 139 | 19.8 | 70.2 | – | C=C(F)C(=O)N1CCN(c2nc(OC[C@@H]3CCCN3C)nc3c2CCN(c2cccc4cccc(Cl)c24)C3)C[C@@H]1CC#N [MRTX849, reference compound]
22.6 | 19.5 | – | – | – | – | 0.86 | COCCc1ccc(OCC(O)CNC(C)C)cc1 (stereo not shown) [Metoprolol]

Further lines, the compound ahead of its results:

SMILES | Papp A→B at 2 h, 10 μM (in vitro [1]) [×10⁻⁶ cm/s] | Papp B→A at 2 h, 10 μM (in vitro [1]) [×10⁻⁶ cm/s] | half-life at 1 μM (in vitro [2]; ICR (CD-1), mouse) [min] | microsomal CLint at 1 μM (in vitro [2]; ICR (CD-1), mouse) [µL/min/mg] | half-life at 1 μM (in vitro [2]; human) [min] | microsomal CLint at 1 μM (in vitro [2]; human) [µL/min/mg] | efflux ratio at 2 h, 10 μM (in vitro [1])
C=CC(=O)N1CCN(c2nc(=O)n(-c3c(C)ccnc3C(C)C)c3nc(-c4c(O)cccc4F)c(F)cc23)[C@@H](C)C1 [AMG510] | 0.6 | 27.4 | – | – | – | – | –
[2H]C([2H])([2H])N1CCC[C@H]1COc1nc2c(c(N3CCN(C(=O)C(=C)F)[C@@H](CC#N)C3)n1)CCN(c1cccc3cccc(Cl)c13)C2 [Compound 18, 2-((S)-4-(7-(8-chloronaphthalen-1-yl)-2-(((S)-1-(methyl-d3)pyrrolidin-2-yl)methoxy)-5,6,7,8-tetrahydropyrido[3,4-d]pyrimidin-4-yl)-1-(2-fluoroacryloyl)piperazin-2-yl)acetonitrile] | – | – | 12.3 | 113 | 19.3 | 72 | –
C[C@H]1O[C@@H](O[C@H]2[C@@H](O)C[C@H](O[C@H]3[C@@H](O)C[C@H](O[C@H]4CC[C@@]5(C)[C@H](CC[C@@H]6[C@@H]5C[C@@H](O)[C@]5(C)[C@@H](C7=CC(=O)OC7)CC[C@]65O)C4)O[C@@H]3C)O[C@@H]2C)C[C@H](O)[C@@H]1O [Digoxin] | 0.25 | 16.4 | – | – | – | – | 65.2
